Results published in US12482280B2, “Biological image transformation using machine-learning models” (Insitro, Inc., priority 2020, dated 2025).

Tested on: tissues with NASH
Assay: Evaluation of drug treatment in NASH disease model using GAN-generated phase/fluorescence images
Assay type: cell-based
Details: NASH 2X + ACC inhibitor
Source text: FIG. 16A illustrates synthetic images generated by an exemplary GAN model to study the NASH disease, in accordance with some embodiments. In the depicted example, Hepg2 cells with NASH genetic background are illuminated using an optimal illumination pattern identified using techniques described herein, and a bright-field image is captured. The bright-field image is inputted into a GAN model, which outputs a generated phase image and a generated fluorescence/bodipy image in FIG. 16A. The GAN model used in FIG. 16A can be configured to include a trained classifier as described with reference to FIGS. 14A-B and 15. The classifier has two conditions: a healthy condition (e.g., no perturbations) and a diseased condition (e.g., inflammation cocktail plus fatty acid). […]
The synthetic images generated by the GAN model can also be used to evaluate the efficacy of a treatment. […] The images can be phase images or fluorescence images generated using the techniques described herein (e.g., from bright-field images). Each phase or fluorescence image can be generated based on multiple bright-field images and thus comprises richer information such as phase shift information. Accordingly, the generated phase or fluorescence images can allow for higher precision in downstream analyses, as described below. […]

## COc1ccccc1[C@H](Cn1c(=O)n(C(C)(C)C(=O)O)c(=O)c2c(C)c(-c3ncco3)sc21)OC1CCOCC1 [ACC inhibitor, firsocostate]
50 uM, treated tissues vs untreated diseased tissues, generated images
  probability of having the disease outputted by a classifier trained on generated images (distribution, FIG. 16C): lower probabilities of having the disease than generated images of diseased tissues
Generated images of treated vs diseased vs healthy tissues
  image clusters in an embedding space (UMAP, FIG. 16D): moves away from the cluster of generated diseased images and toward the cluster of generated healthy images
